Test results taken from US10130590B2, “Methods of treating cancer with atovaquone-related compounds” (DANA-FARBER CANCER INSTITUTE, INC., priority 2013, dated 2018).

What was measured:
Format in all cases: cell-based
[1] = system: endogenous STAT3 target genes; assay: qRT-PCR of endogenous STAT3 target genes; settings: U266, INA-6 and HEL cells, 6 hours
Protocol: Total RNA was reverse transcribed using random hexamers and assayed by qRT-PCR as previously described (see, Grivennikov S I, Greten F R, & Karin M (2010) Immunity, inflammation, and cancer. Cell 140(6):883-899).
(§1) Gene expression was analyzed in triplicate, normalized by 18S rRNA, and expressed as mean±SEM. For gene expression microarrays, RNA was isolated by Trizol, purified further on RNeasy columns, and profiled using Affymetrix Human Gene 1.0 ST arrays (Affymetrix). Results were deposited under GEO Accession: GSE46575.
The mechanism by which atovaquone inhibits STAT3 was investigated. STAT3-luc reporter cells were pre-treated with atovaquone (20 μM) for 1 hr, and then stimulated with IL-6 (10 ng/ml) for 15 minutes, 30 minutes, 1 hours, or 2 hours. Since STAT3 transcriptional activity is critically dependent on tyrosine phosphorylation, Western blotting was performed to see if atovaquone affected STAT3 phosphorylation. […] Next, atovaquone was used to treat U266 (2.5 hours), HEL (6 hours), or INA-6 cells (4 hours). […] In U266 and INA-6 cells, the source of STAT3 activation is JAK-dependent IL-6 signaling, while in HEL cells, STAT3 is activated by mutant JAK2-V617F. Given that atovaquone inhibits constitutive STAT3 activation in cancer cells, it was asked whether atovaquone inhibits expression of endogenous STAT3 target genes in this context.

K562 and U266 cells = assay: Gene expression microarrays and qRT-PCR for atovaquone-induced genes
Protocol: as §1
To discover the gene whose induction by atovaquone was responsible for mTOR inhibition, gene expression microarrays were performed in K562 and U266 cells. It was reasoned that induction of the causative factor must be common to all cell lines in which atovaquone inhibits the mTOR pathway. […] Of these, REDD1 is a known negative regulator of mTOR, whose activity is dependent on the TSC1/2-complex.

K562 and AML2 cells = assay: Annexin V/PI and cell cycle analysis, K562 and AML2; settings: K562 20 μM, AML2 15 μM, 48 hours
Protocol: Annexin V/PI staining was performed using Annexin V:FITC Apoptosis Detection Kit I (BD Biosciences). Staining for cell cycle analysis was performed as previously described (267). Staining for cell-surface receptors was performed in 50 μl PBS+2% FBS with 2 μl antibody to IL6R (BioLegend #352803) or 5 μl antibody to gp130 (BD Biosciences #555757) for 20 minutes on ice in the dark. Cells were washed twice, then resuspended in 300 μl of the same buffer. Samples were analyzed on a BD FACSCanto II machine. Transfection and siRNA Cells were reverse-transfected using Lipofectamine RNAiMAX (Invitrogen); the culture medium was changed 24 hours later. Control siRNA (D-001210-02) and REDD1 siRNA (M-010855-01) were from Thermo Scientific Dharmacon.
K562 and AML2 cells treated with atovaquone (20 and 15 μM, respectively) for 48 hours. […] Therefore, it was hypothesized that atovaquone kills cancer cells through STAT3-related and STAT3-independent mechanisms. Accordingly, the hypothesis that atovaquone inhibited another common pathway in cancer pathogenesis was considered. In particular, the mTOR pathway, which is known to be involved in cancer cell growth and survival, was investigated.

Compound: O=C1C(O)=C([C@H]2CC[C@H](c3ccc(Cl)cc3)CC2)C(=O)c2ccccc21 [atovaquone, trans-2-[4-(4-chlorophenyl)cyclohexyl]-3-hydroxy-1,4-naphthalenedione]
- expression of multiple STAT3 target genes [1]: substantially downregulated
- REDD1 expression (K562 and U266 cells): inducing the expression of REDD1
- mode of loss of viability (K562 and AML2 cells): apoptosis and cell cycle arrest
